Here are results for 6 compounds from patent publication US20040197335A1, “Non-myeloablative tolerogenic treatment with tyrphostins” (priority 2003, published 2004).

For test [1], the system named is Human PBMC incubated with MHC-mismatched PBMC. Briefly: One-way mixed lymphocyte reaction (primary MLR), [3H]TdR uptake. The test is classed as cell-based. Conditions: for % response (alloreactive relative response, cpm with/without tyrphostin x100): FIG. 2, response without tyrphostin = 100%; for IC50: Table 5, some values marked (mean), read-out: IC 50% (inhibition of Primary MLR); for cpm: no tyrphostin 10,734 cpm. On the procedure: Cell sources: Human peripheral blood mononuclear cells (PBMC) were obtained from healthy human donors after separation on Ficoll-Paque density gradient essentially as described in Boyum, A. Scand. J Lab. Invest. […] Reagents:
One-way mixed lymphocyte reaction (MLR assay): Responding cells derived from donor A (5×10^4) were cultured in round-bottom microwell plates with an equal number (5×10^4) of irradiated (6000 cGy) donor B PBMC with and without tyrphostins. […] During the last 18 hours of incubation, cultures were pulsed with 2 μCi of [^3H] TdR.
(§1) Harvesting and radioactivity determination: Harvesting was carried out by a multiple-sample cell harvester and radioactivity, expressed in counts per minutes (cpm), was determined in a liquid scintillation β-counter.
Human PBMC were incubated either with autologous or with MHC-mismatched PBMC in a one-way MLR assay, with and without various concentrations of tyrphostins, as is described hereinabove.
In this case, the alloreactive response without the tyrphostins was considered as 100% response. Percentage of response was calculated according to the following formula: b/a×100; where a=cpm in cultures without tyrphostin, b=cpm in cultures with tyrphostin.

Test [2] has as its system Human PBMC stimulated with phytohemagglutinin (PHA). Briefly: Primary mitogenic response assay (PHA), [3H]TdR uptake. The class given is cell-based. Conditions: Table 6, tyrphostin 20 μM; for inhibition at 20 µM: Homo sapiens, PBMC, 96 h, mitogenic response; for cpm ± SD: PHA without tyrphostin 14,959±644, medium 155±37. The method, then:
Mitogens: Phytohemagglutinin (PHA) and concanavalin A (Con-A) were dissolved in saline and diluted to their final concentration in culture medium. Anti-CD3 (OK3 stock solution 1 μg/ml) was diluted to 0.2 μg/ml final concentration in culture medium.
Responding PBMC cells (10^5) derived from donor A were cultured in flat-bottom microwell plates with and without tyrphostins, and with phytohemagglutinin (PHA) 1 μg/ml, or concanavalin A 18 μg/ml. […] During the last 18 hours of incubation, cultures were pulsed with 1 μCi of [^3H] TdR.
as §1

Test [3] has as its system donor A anti-donor B-primed human PBMC vs donor B PBMC. Briefly: Secondary MLR of alloantigen-primed PBMC against priming donor B. The class given is cell-based. Conditions: then removed, priming without tyrphostin = 100%. On the procedure: (§2) PBMC from donor A (10×10^6) were stimulated with equal number of irradiated (6000 cGy) donor B PBMC, with and without tyrphostins, in a total volume of 20 ml culture medium supplemented with 10% heat inactivated human AB^+ serum (mixed lymphocyte culture, MLC). Cultures were placed vertically in 25 cm tissue culture flasks in a 5% CO2, humidified incubator at 37° C. After 10 days, cells were washed twice to remove the tyrphostin, and tested for their ability to respond in the MLR and the primary mitogenic response assay described hereinabove.
(§3) The alloreactivity of donor A anti-donor B-primed cells (5×10^4) was tested in a 6-day one-way primary MLR assay against third party unrelated donor C PBMC (10^5), or against donor A cells (background control). Cultures were placed in round-bottom microwell plates. On day 5, cultures were pulsed with 2 μCi [^3H] TdR/well for 16-18 hours and then harvested. […] After 48 hours at 37° C. in a 5% CO2 humidified incubator, cultures were pulsed with 2 μCi [^3H] TdR for another 16-18 hours and then harvested.
as §1
(§4) […] After 10 days the tyrphostin was removed and the primed cells were tested for their ability to respond in a secondary MLR assay against the priming (donor B) alloantigens, in a primary MLR assay against third party unrelated alloantigens (donor C), and to non-specific stimulation in a mitogenic assay. […] Percentage of response was calculated according to the formula described above.

Test [4] deals with donor A anti-donor B-primed human PBMC vs third party unrelated donor C PBMC. In words: Primary MLR of alloantigen-primed PBMC against third party unrelated donor C. Particulars: then removed, priming without tyrphostin = 100%. The class given is cell-based. The method, then: as §2, §3, §1, §4
Test [5] deals with donor A anti-donor B-primed human PBMC stimulated with PHA. In words: Mitogenic response (PHA) of alloantigen-primed PBMC. The class given is cell-based. Conditions: then removed, priming without tyrphostin = 100%. On the procedure: as §2
Cultures were incubated for 48 hours in a total volume of 0.2 ml culture medium supplemented with 10% heat-inactivated human AB^+ serum at 37° C. in a 5% CO2 humidified incubator, pulsed for 16-18 hours with 1 μCi [^3H]TdR/well, and then harvested.
as §1, §4

The test system of test [6] is Mice with donor skin graft. Briefly: Skin grafting after tolerogenic treatment (TLI, donor bone marrow cells, tyrphostin, cyclophosphamide). The class given is in vivo. Set-up: Survivors after 50 days / Survivors after 50 days (%) / Survivors after 100 days / Survivors after 100 days (%): dose or concentration left out as unconfirmed.
[7] abbreviates: Homo sapiens, PBMC, 144 h, Table 2, primary MLR, tyrphostin 50 μM.
[8] abbreviates: Table 2, primary MLR, tyrphostin 50 μM.
Setting [9] is: primed 10 days with tyrphostin 25 μM.
Setting [10] is: primed 10 days with tyrphostin 50 μM.
[11] abbreviates: primed 10 days with tyrphostin 20 μM.
[12] abbreviates: primed 10 days with tyrphostin 40 μM.
Setting [13] is: Table 2, primary MLR, tyrphostin 5 μM.
[14] abbreviates: Table 2, primary MLR, tyrphostin 10 μM.
The mark [15] stands for this setting: primed 10 days with tyrphostin 5 μM.
Where [16] appears, read: primed 10 days with tyrphostin 10 μM.
Setting [17] is: primed 10 days with tyrphostin 30 μM.

The term inhibition denotes the share of the control response that was lost under treatment. For `N#CC(=Cc1ccc(O)c(O)c1)C(=O)NCc1ccccc1` [Tyr 1, N-benzyl-2-cyano-3-(3,4-dihydroxyphenyl)-acrylamide], the “% response (alloreactive relative response, cpm with/without tyrphostin x100)” value is given as 40% in test [1] (primary MLR, tyrphostin 10 μM) and 4% in test [1] (primary MLR, tyrphostin 50 μM). In addition, testing at 25 µM in test [1] (Homo sapiens, PBMC, 144 h, Table 2, primary MLR, tyrphostin 25 μM) gave an inhibition of 77%. This compound also came in with an inhibition at 50 µM in test [1] (setting [7]) of 89%. For the same compound, the IC50 in test [1] (Homo sapiens, PBMC) was found to be 45 µM. Besides, the cpm was 2,420 cpm in test [1] (Table 2, primary MLR, tyrphostin 25 μM) and 1,132 cpm in test [1] (setting [8]). In addition, the inhibition at 20 µM in test [2] stood at 60%. The “cpm ± SD” value in test [2] is 6,023 ± 876 cpm. The results for the “% Response to primary stimulator” value in test [3] (setting [9]) and in test [3] (setting [10]) were 22 ± 14% and 19 ± 10%, respectively. For the same compound, the “% Response to unrelated stimulator” value in test [4] (setting [9]) is 99 ± 29^ %; in test [4] (setting [10]), 175 ± 77%. For the same compound, the “% Response to PHA” value in test [5] (setting [9]) was 290 ± 111^ %; in test [5] (setting [10]), 176 ± 50%. For the same compound, in test [6] (mice, s.c.), the “Survivors after 50 days (%)” value is “(20%)”. In addition, in test [6] (mice, s.c.), the “Survivors after 100 days (%)” value is “(20%)”. The “Survivors after 50 days” value in test [6] (mice, s.c., survivors/total) is given as 1/5. For the same compound, in test [6] (mice, s.c., survivors/total), the “Survivors after 100 days” value is 1/5.
In the case of `N#CC(=Cc1cc(O)c(O)c(CSCCCc2ccccc2)c1)C(=O)NCc1ccccc1` [Tyr 2, N-benzyl-2-cyano-3-[3,4-dihydroxy-5-(3-phenylpropylsulfanylmethyl)-phenyl]-acrylamide], the “% response (alloreactive relative response, cpm with/without tyrphostin x100)” value in test [1] (primary MLR, tyrphostin 10 μM) came to 73%; in test [1] (primary MLR, tyrphostin 50 μM) it was 0%. In test [1] (Homo sapiens, PBMC, 144 h, Table 2, primary MLR, tyrphostin 20 μM), this compound displayed an inhibition at 20 µM of 73%. This compound showed an inhibition at 40 µM in test [1] (Homo sapiens, PBMC, 144 h, Table 2, primary MLR, tyrphostin 40 μM) of 95%. For the same compound, the IC50 in test [1] (Homo sapiens, PBMC) amounted to 22 µM. Moreover, the cpm in test [1] (Table 2, primary MLR, tyrphostin 20 μM) was 2,863 cpm; in test [1] (Table 2, primary MLR, tyrphostin 40 μM) it was 490 cpm. The entries for the “% Response to primary stimulator” value in test [3] (setting [11]) and in test [3] (setting [12]) were 280% and 15%, respectively. Besides, the “% Response to unrelated stimulator” value stood at 257% in test [4] (setting [11]) and 138% in test [4] (setting [12]). Also, the “% Response to PHA” value in test [5] (setting [11]) is on record as 900%; in test [5] (setting [12]), 254%.
For the compound `Cc1ccc(-c2nn(C(C)(C)C)c3ncnc(N)c23)cc1` [Tyr 3, 4-amino-1-t-butyl-3-(p-toluyl)pyrazolo[3,4-d]pyrimidine], the results for the cpm in test [1] (setting [13]) and in test [1] (setting [14]) were 3,130 cpm and 145 cpm, respectively. The compound also returned an inhibition at 20 µM in test [2] of 98%. In addition, in test [2], the “cpm ± SD” value was determined as 300 ± 24 cpm. The “% Response to primary stimulator” value stood at 65% in test [3] (setting [15]), 24 ± 10% in test [3] (setting [16]) and 24 ± 18% in test [3] (setting [11]). Besides, the “% Response to unrelated stimulator” value is 55% in test [4] (setting [15]), 206 ± 99% in test [4] (setting [16]) and 57 ± 44^ % in test [4] (setting [11]). Besides, the “% Response to PHA” value was 26% in test [5] (setting [15]), 110 ± 35% in test [5] (setting [16]) and 30 ± 28^ % in test [5] (setting [11]).
In the case of `CC(C)(C)n1nc(-c2ccc(Cl)cc2)c2c(N)ncnc21` [Tyr 4, 4-amino-1-t-butyl-3-(p-chlorophenyl)pyrazolo[3,4-d]pyrimidine], the cpm in test [1] (setting [13]) is on record as 3,316 cpm; in test [1] (setting [14]), 580 cpm. In test [2], this compound yielded an inhibition at 20 µM of 98%. The “cpm ± SD” value in test [2] worked out at 230 ± 115 cpm. Also, the “% Response to primary stimulator” value was 132% in test [3] (setting [15]), 13 ± 4.5% in test [3] (setting [16]) and 6.5 ± 0.5% in test [3] (setting [11]). For the same compound, the “% Response to unrelated stimulator” value is listed as 145% in test [4] (setting [15]), 288 ± 122^ % in test [4] (setting [16]) and 204 ± 18% in test [4] (setting [11]). Moreover, the “% Response to PHA” value is recorded as 29% in test [5] (setting [15]), 120 ± 40% in test [5] (setting [16]) and 40 ± 32^ % in test [5] (setting [11]).
With `N#CC(=Cc1cc(O)c(O)c(CSCCc2ccccc2)c1)C(=O)NCCCCc1ccccc1` [Tyr 6, 2-cyano-3-(3,4-dihydroxy-5-phenethylsulfanylmethyl-phenyl)-N-(4-phenylbutyl)-acrylamide], testing at 10 µM in test [1] (Homo sapiens, PBMC, 144 h, Table 2, primary MLR, tyrphostin 10 μM) gave an inhibition of 59%. In test [1] (setting [7]), this compound displayed an inhibition at 50 µM of 99%. For the same compound, the IC50 in test [1] (Homo sapiens, PBMC) turned out to be 23 µM. The results for the cpm in test [1] (setting [14]) and in test [1] (setting [8]) were 4,431 cpm and 168 cpm, respectively. In test [2], the inhibition at 20 µM came to 70%. Besides, the “cpm ± SD” value in test [2] was 4,662 ± 104 cpm. For the same compound, the results for the “% Response to primary stimulator” value in test [3] (setting [16]), in test [3] (setting [11]) and in test [3] (setting [17]) were 32%, 32 ± 0% and 46%, respectively. The “% Response to unrelated stimulator” value is 250% in test [4] (setting [16]), 220 ± 93% in test [4] (setting [11]) and 185% in test [4] (setting [17]). Besides, the “% Response to PHA” value in test [5] (setting [16]) is 152%; in test [5] (setting [11]) it was 62 ± 42^ %; in test [5] (setting [17]), 20%.
`O=P1(N(CCCl)CCCl)NCCCO1` (stereo not drawn) [cyclophosphamide, reference compound]: in test [6] (mouse, in vivo, 100 mg/kg), the “effectiveness of sub-optimal dose by itself” value is reported as “ineffective”.
